Source: ChEMBL document CHEMBL1145134, “Inclusion complexation and solubilization of paclitaxel by bridged bis(beta-cyclodextrin)s containing a tetraethylenepentaamino spacer” (2003)

Test system: K562
Assay: Antiproliferative activity of the paclitaxel-TPCD complex was tested against K562 erythroleukemia after 72 hr at a concentration of 1E-6 mg/mL using MTT cytotoxicity assay
Type: functional, Homo sapiens

CC(=O)O[C@H]1C(=O)[C@@]2(C)[C@H]([C@H](OC(=O)c3ccccc3)[C@]3(O)C[C@H](OC(=O)[C@H](O)[C@@H](NC(=O)c4ccccc4)c4ccccc4)C(C)=C1C3(C)C)[C@]1(OC(C)=O)CO[C@@H]1C[C@@H]2O [PACLITAXEL]
Activity: 57.7%
